Test results reported in patent US7718652B2, “Substituted benzothiadiazinedioxide derivatives and methods of their use” (Wyeth LLC, priority 2006, dated 2010).
Structures can show the parent of a compound that is named as a salt.

Molecular target: T1, human hNET (Homo sapiens, UniProt P23975)
T1 construct: expressed in transfected cells; host or cells: MDCK-Net6 (MDCK cells stably transfected)
Experiment: Functional Norepinephrine (NE) Uptake Assay in MDCK-Net6 cells
Type: cell-based
Details: for IC50: MDCK-Net6 cells stably transfected with human hNET, 3H norepinephrine 16 nM; for inhibition at 10 µM: MDCK-Net6 cells, printed in the IC50 column where 50% inhibition was not exceeded, read-out: hNET Uptake, % inhibition at highest concentration tested
Method: MDCK-Net6 cells, stably transfected with human hNET (Pacholczyk, T., R. D. Blakely, and S. G. Amara, Nature, 1991, 350(6316): p. 350-4) were cultured in growth medium containing high glucose DMEM (Gibco, Cat. No. 11995), 10% FBS (dialyzed, heat-inactivated, US Bio-Technologies, Lot FBD1129HI) and 500 μg/ml G418 (Gibco, Cat. No. 10131). Cells were plated at 300,000 T75 flask and cells were split twice weekly.
Functional Norepinephrine (NE) Uptake Assay
On day 1, cells were plated at 3,000 cells/well in growth medium and maintained in a cell incubator (37° C., 5% CO2). On day 2, growth medium was replaced with 200 μl of assay buffer (25 mM HEPES; 120 mM NaCl; 5 mM KCl; 2.5 mM CaCl2; 1.2 mM MgSO4; 2 mg/ml glucose (pH 7.4, 37° C.)) containing 0.2 mg/ml ascorbic acid and 1 μM pargyline. For screening, 25 μl of compound in 4% […] was added directly to each well and the plate is incubated for 5 minutes at 37° C.
To initiate the norepinephrine reuptake, 16 nM (final concentration) of ^3H norepinephrine (specific activity; 40-80 Ci/mmol) in assay buffer was delivered in 25 μl aliquots to each well, and the plates were incubated for 5 minutes at 37° C. The reaction was aspirated from the plate and the cells washed with 250 μl of 50 mM Tris Buffer (4° C.). The plates were left to dry for 1 hour. The cells were lysed using 0.25 M NaOH solution then placed on a shake table and vigorously shaken for 10 minutes. After cell lysis, 100 μl of Microscint 20 (PerkinElmer; #87-051101) were added to the plates and the plates were sealed with film tape and replaced on the shake table for a minimum of 10 minutes. The plates were counted in a TopCount counter (PerkinElmer).
For screening single point determinations, each compound plate contains at least 3 control wells (maximum NE reuptake determinant) and 3 non-specific wells determined by adding 20 μM of desipramine (minimum NE reuptake determinant). Determination of active compounds are calculated using a Microsoft Excel spread sheet applying the following formula: % inhibition=[1−((mean cpm test compound wells−mean cpm non-specific wells)/(mean cpm control wells−mean cpm non-specific wells))]×100
For IC50 determination, raw cpm values were generated in a data file from the TopCount counter. The data was organized in Microsoft Excel and transferred into PRIZM graphing and statistical program, which calculates the estimated IC50 value. Calculation of IC50 values were made using non-linear regression analysis with a sigmoidal dose response with variable slope. The statistical program used wells containing ^3H norepinephrine only as the maximal NE reuptake determinant and wells containing ^3H norepinephrine plus 20 μM desipramine as the minimal NE reuptake determinant (non-specific determinant). Estimation of the IC50 value was completed on a log scale and the line was fit between the maximal and minimal NE reuptake values.

T1 sequence (P23975 whole entry): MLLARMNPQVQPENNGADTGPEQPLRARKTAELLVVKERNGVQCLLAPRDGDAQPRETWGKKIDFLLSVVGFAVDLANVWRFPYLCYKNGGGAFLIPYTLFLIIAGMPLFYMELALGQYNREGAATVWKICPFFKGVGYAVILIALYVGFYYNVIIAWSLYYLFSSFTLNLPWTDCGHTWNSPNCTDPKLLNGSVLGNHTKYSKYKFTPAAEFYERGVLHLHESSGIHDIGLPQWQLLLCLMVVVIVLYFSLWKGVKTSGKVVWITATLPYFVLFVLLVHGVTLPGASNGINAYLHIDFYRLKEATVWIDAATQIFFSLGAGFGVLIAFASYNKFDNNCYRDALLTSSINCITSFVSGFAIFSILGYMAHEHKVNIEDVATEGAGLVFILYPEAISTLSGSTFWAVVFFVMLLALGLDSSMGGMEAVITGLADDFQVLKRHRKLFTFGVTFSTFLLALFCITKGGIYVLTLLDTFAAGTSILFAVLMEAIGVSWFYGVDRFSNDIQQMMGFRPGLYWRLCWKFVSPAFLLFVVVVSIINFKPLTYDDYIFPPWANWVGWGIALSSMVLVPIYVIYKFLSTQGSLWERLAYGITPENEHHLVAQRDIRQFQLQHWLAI

In the case of O=S1(=O)N(CCCNC2CC2)Cc2cc(F)ccc2N1c1ccccc1F [Example 20, N-{3-[6-fluoro-1-(2-fluorophenyl)-2,2-dioxido-1,4-dihydro-3H-2,1,3-benzothiadiazin-3-yl]propyl}cyclopropanamine], the IC50 was 1750 nM.
In the case of CNCCCN1c2ccccc2CN(c2ccccc2F)S1(=O)=O [Example 25, 3-[3-(2-fluorophenyl)-2,2-dioxido-3,4-dihydro-1H-2,1,3-benzothiadiazin-1-yl]-N-methylpropan-1-amine], the inhibition at 10 µM was 47%.
CNC[C@@H](O)CCN1Cc2ccccc2N(c2ccccc2F)S1(=O)=O [Example 24, (2S)-4-[1-(2-fluorophenyl)-2,2-dioxido-1,4-dihydro-3H-2,1,3-benzothiadiazin-3-yl]-1-(methylamino)butan-2-ol] showed an IC50 of 95 nM.
CNCCCN1Cc2cc(F)ccc2N(c2ccccc2F)S1(=O)=O [Example 19, 3-[6-fluoro-1-(2-fluorophenyl)-2,2-dioxido-1,4-dihydro-3H-2,1,3-benzothiadiazin-3-yl]-N-methylpropan-1-amine] showed an IC50 of 119 nM.
For CNCCN1Cc2ccccc2N(c2ccccc2F)S1(=O)=O [Example 11, 2-[1-(2-fluorophenyl)-2,2-dioxido-1,4-dihydro-3H-2,1,3-benzothiadiazin-3-yl]-N-methylethanamine], the IC50 was 200 nM.
For O=S1(=O)N(CCNC2CC2)Cc2cc(F)ccc2N1c1ccccc1F [Example 18, N-{2-[6-fluoro-1-(2-fluorophenyl)-2,2-dioxido-1,4-dihydro-3H-2,1,3-benzothiadiazin-3-yl]ethyl}cyclopropanamine], the IC50 was 2870 nM.
Work on CNCCCN1Cc2ccccc2N(c2ccc(C)cc2)S1(=O)=O [Example 8, N-methyl-3-[1-(4-methylphenyl)-2,2-dioxido-1,4-dihydro-3H-2,1,3-benzothiadiazin-3-yl]propan-1-amine hydrochloride] yielded an IC50 of 135 nM.
CNCCCN1Cc2ccccc2N(c2cccc(F)c2)S1(=O)=O [Example 2, 3-[1-(3-fluorophenyl)-2,2-dioxido-1,4-dihydro-3H-2,1,3-benzothiadiazin-3-yl]-N-methylpropan-1-amine hydrochloride] showed an IC50 of 628 nM.
In the case of CNCCCN1Cc2ccccc2N(c2cccc(OC)c2)S1(=O)=O [Example 4, 3-[1-(3-methoxyphenyl)-2,2-dioxido-1,4-dihydro-3H-2,1,3-benzothiadiazin-3-yl]-N-methylpropan-1-amine hydrochloride], the IC50 was 792 nM.
Work on O=S1(=O)N(CCCCNC2CC2)Cc2ccccc2N1c1ccccc1F [Example 16, N-{4-[1-(2-fluorophenyl)-2,2-dioxido-1,4-dihydro-3H-2,1,3-benzothiadiazin-3-yl]butyl}cyclopropanamine] yielded an IC50 of 139 nM.
For CNCCN1c2ccccc2CN(c2ccccc2F)S1(=O)=O [Example 26, 2-[3-(2-fluorophenyl)-2,2-dioxido-3,4-dihydro-1H-2,1,3-benzothiadiazin-1-yl]-N-methylethanamine], the inhibition at 10 µM was 36%.
CNCCCN1Cc2ccccc2N(c2ccc(OC)cc2)S1(=O)=O [Example 9, 3-[1-(4-methoxyphenyl)-2,2-dioxido-1,4-dihydro-3H-2,1,3-benzothiadiazin-3-yl]-N-methylpropan-1-amine hydrochloride] showed an IC50 of 3550 nM.
CNCCCN1Cc2ccccc2N(c2ccccc2)S1(=O)=O [Example 1, 3-(2,2-dioxido-1-phenyl-1,4-dihydro-3H-2,1,3-benzothiadiazin-3-yl)-N-methylpropan-1-amine hydrochloride] gave an IC50 of 129 nM.
Molecule CNCCCN1Cc2ccccc2N(c2ccc(Cl)cc2)S1(=O)=O [Example 5, 3-[1-(4-chlorophenyl)-2,2-dioxido-1,4-dihydro-3H-2,1,3-benzothiadiazin-3-yl]-N-methylpropan-1-amine hydrochloride] has an IC50 of 908 nM.
In the case of CNCCCN1Cc2ccccc2N(c2cccc(C)c2)S1(=O)=O [Example 3, N-methyl-3-[1-(3-methylphenyl)-2,2-dioxido-1,4-dihydro-3H-2,1,3-benzothiadiazin-3-yl]propan-1-amine hydrochloride], the IC50 was 1030 nM.
Work on CNCCN1Cc2cc(F)ccc2N(c2ccccc2F)S1(=O)=O [Example 17, 2-[6-fluoro-1-(2-fluorophenyl)-2,2-dioxido-1,4-dihydro-3H-2,1,3-benzothiadiazin-3-yl]-N-methylethanamine] yielded an IC50 of 1410 nM.
CNCCCN1Cc2ccccc2N(c2ccccc2F)S1(=O)=O [Example 13, 3-[1-(2-fluorophenyl)-2,2-dioxido-1,4-dihydro-3H-2,1,3-benzothiadiazin-3-yl]-N-methylpropan-1-amine] showed an IC50 of 29 nM.
For O=S1(=O)N(CCCCNC2CC2)Cc2cc(F)ccc2N1c1ccccc1F [Example 22, N-{4-[6-fluoro-1-(2-fluorophenyl)-2,2-dioxido-1,4-dihydro-3H-2,1,3-benzothiadiazin-3-yl]butyl}cyclopropanamine], the IC50 was 177 nM.
O=S1(=O)N(CCCNC2CC2)Cc2ccccc2N1c1ccccc1F [Example 14, N-{3-[1-(2-fluorophenyl)-2,2-dioxido-1,4-dihydro-3H-2,1,3-benzothiadiazin-3-yl]propyl}cyclopropanamine] showed an IC50 of 956 nM.
CNC[C@@H](O)CCN1Cc2cc(F)ccc2N(c2ccccc2F)S1(=O)=O [Example 23, (2S)-4-[6-fluoro-1-(2-fluorophenyl)-2,2-dioxido-1,4-dihydro-3H-2,1,3-benzothiadiazin-3-yl]-1-(methylamino)butan-2-ol] was tested, and the IC50 was 81 nM.
Molecule O=S1(=O)N(CCNC2CC2)Cc2ccccc2N1c1ccccc1F [Example 12, N-{2-[1-(2-fluorophenyl)-2,2-dioxido-1,4-dihydro-3H-2,1,3-benzothiadiazin-3-yl]ethyl}cyclopropanamine] has an IC50 of 2380 nM.
Molecule CNCCCN1Cc2ccccc2N(c2ccc(F)cc2)S1(=O)=O [Example 7, 3-[1-(4-fluorophenyl)-2,2-dioxido-1,4-dihydro-3H-2,1,3-benzothiadiazin-3-yl]-N-methylpropan-1-amine hydrochloride] has an IC50 of 492 nM.
Molecule CNCCCCN1Cc2ccccc2N(c2ccccc2F)S1(=O)=O [Example 15, 4-[1-(2-fluorophenyl)-2,2-dioxido-1,4-dihydro-3H-2,1,3-benzothiadiazin-3-yl]-N-methylbutan-1-amine] has an IC50 of 38 nM.
Molecule CNCCCCN1Cc2cc(F)ccc2N(c2ccccc2F)S1(=O)=O [Example 21, 4-[6-fluoro-1-(2-fluorophenyl)-2,2-dioxido-1,4-dihydro-3H-2,1,3-benzothiadiazin-3-yl]-N-methylbutan-1-amine] has an IC50 of 30 nM.
In the case of CNCCCN1Cc2ccccc2N(c2ccc(F)c(F)c2)S1(=O)=O [Example 10, 3-[1-(3,4-difluorophenyl)-2,2-dioxido-1,4-dihydro-3H-2,1,3-benzothiadiazin-3-yl]-N-methylpropan-1-amine hydrochloride], the IC50 was 973 nM.
CNCCCN1Cc2ccccc2N(c2ccc(F)c(Cl)c2)S1(=O)=O [Example 6, 3-[1-(3-chloro-4-fluorophenyl)-2,2-dioxido-1,4-dihydro-3H-2,1,3-benzothiadiazin-3-yl]-N-methylpropan-1-amine hydrochloride] showed an IC50 of 1500 nM.
